Patent publication US6133258A, “Inhibitor of kainic acid neurotoxicity and pyridothiazine derivative” (Yamanouchi Pharmaceutical Co., Ltd., priority 1995, dated 2000)

Legend:
[1] = system: NMDA excitotoxicity or experimental animal models for epilepsy, cerebral ischemia; settings: literature; cited from earlier work
[2] = system: experimental animal model for cerebral ischemia; settings: literature; cited from earlier work
AMPA receptor = settings: literature; cited from earlier work
DBA/2 mice = experiment: Audiogenic seizure inhibitory action (anticonvulsant effect) in DBA/2 mice; assay type: in vivo; settings: Mus musculus, ip, 0.75 h; i.p. 45 minutes before sound stimulation (12 kHz, 120 dB); ten male 21 to 28-day-old mice; read-out: Anticonvulsant effect for audiogenic seizure in DBA/2 mice, minimum effective dose
Protocol: 2) Measurement of audiogenic seizure inhibitory action in DBA/2 mice
The test compound was suspended in a 0.5% methylcellulose solution and the resulting suspension was intraperitoneally administered 45 minutes before the stimulation by the sound. The drug efficacy was evaluated by presence or absence of the appearance of seizure and the minimum effective dose was determined.

[3] = system: primary rat hippocampal cultures; experiment: Inhibition of kainic acid neurotoxicity (LDH release) in primary rat hippocampal cultures; assay type: cell-based; settings: Hippocampal neuron; 300 μM kainic acid, 24 hours, primary rat hippocampal neurons, lactate dehydrogenase release
Protocol: 1) Inhibition of kainic acid neurotoxicity
The effect of the compound of the present invention for inhibiting kainic acid neurotoxicity was studied using primary rat hippocampal cultures.
(1) Incubation conditions
The hippocampus was dissected from a brain of the 18 to 20-day-old fetal rat and was subjected to enzyme treatment with papain and DNase I to disperse the cells. The cells so obtained were suspended in MEM containing 10% serum and plated on poly-L-lysine coated 48-well plates at a density of 4×10^5 cells/cm^2. Twenty four hours later, the medium was replaced by a serum-free medium. The medium was changed twice a week. The cells which were cultured for at least 6 days were provided for the following test.
(2) Inhibition against kainic acid neurotoxicity
Neurotoxicity was assessed by an activity of lactate dehydrogenase released into the culture medium from destroyed cells. As a control, neurons which were exposed to a serum-free medium containing 300 μM kainic acid for 24 hours were used. Each compound, together with 300 μM kainic acid, was allowed to act on the neuron for 24 hours and inhibitory action of each compound against kainic acid neurotoxicity was evaluated.

AMPA-induced cell death = settings: literature; cited from earlier work

Row | SMILES | effect in experimental animal model for cerebral ischemia [2] | minimal effective dose (DBA/2 mice) | IC50 [3] | other results
1 | NC(CCCP(=O)(O)O)C(=O)O (centres unmarked) [2-amino-5-phosphonovaleric acid] | – | – | – | protective effect against NMDA excitotoxicity or in experimental animal models for epilepsy, cerebral ischemia, etc. [1]: protective against NMDA excitotoxicity or in experimental animal models for epilepsy, cerebral ischemia, etc.
2 | CC1=NN=C(c2ccc(N)cc2)c2cc3c(cc2C1)OCO3 [GYKI52466] | effective in an experimental animal model for cerebral ischemia | – | – | effect on AMPA receptor desensitization (AMPA receptor): counteracts the inhibition of desensitization by cyclothiazide
3 | NC(CCCCCP(=O)(O)O)C(=O)O (centres unmarked) [2-amino-7-phosphonoheptanoic acid] | – | – | – | protective effect against NMDA excitotoxicity or in experimental animal models for epilepsy, cerebral ischemia, etc. [1]: protective against NMDA excitotoxicity or in experimental animal models for epilepsy, cerebral ischemia, etc.
4 | NS(=O)(=O)c1cccc2c1c([N+](=O)[O-])cc1[nH]c(=O)c(=O)[nH]c12 [NBQX] | effective in the experimental animal model for cerebral ischemia | – | – | –
5 | Cc1cccc(N(C)c2nc(=O)c3cccnc3s2)c1 [Example 72, 2-[N-Methyl-N-(3-methylphenyl)amino]-4H-pyrido[3,2-e]-1,3-thiazin-4-one] | – | 30 mg/kg | 1900 nM | –
6 | CN(c1ccc(Cl)cc1)c1nc(=O)c2cccnc2s1 [Example 64, 2-[N-(4-Chlorophenyl)-N-methylamino]-4H pyrido[3,2-e]-1,3-thiazin-4-one] | – | 10 mg/kg | 1400 nM | –
7 | NC1CCN(O)C1=O (centres unmarked) [HA-966] | effective in an experimental animal model for cerebral ischemia | – | – | –
8 | CN(c1ccc(Br)cc1)c1nc(=O)c2cccnc2s1 [16-2), 2-[N-(4-Bromophenyl)-N-methylamino]-4H-pyrido[3,2-e]-1,3-thiazin-4-one] | – | 30 mg/kg | 1000 nM | –
9 | NS(=O)(=O)c1cc2c(cc1Cl)NC(C1CC3C=CC1C3)NS2(=O)=O (centres unmarked) [cyclothiazide] | – | – | – | effect on AMPA receptor desensitization (AMPA receptor): desensitization inhibitor; effect on AMPA-induced cell death (AMPA-induced cell death): accelerate AMPA-induced cell death
